From patent US10988459B2 (priority 2015, dated 2021) come the findings set out here.

Like-named read-outs stand apart in the source and are kept apart here.

The assay has as its target human RIP1 kinase domain (2-375) (Homo sapiens (Human), UniProt Q13546). Description: biochemical. It is filed as biochemical. As to conditions: 50 uM ATP. The method in brief: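 50 nM purified kinase domain from baculovirus-infected insect cells, incubated 2 h with compound in 50 mM Hepes pH 7.5, 30 mM MgCl2, 1 mM DTT, 50 uM ATP, 0.002% Brij-35, 0.5% DMSO. ADP formation read by Transcreener FP at 633 nm excitation. Ki^app fitted with the Morrison tight-binding equation.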

Where [1] appears, read: Table 5, apparent Ki (Morrison tight-binding fit), 50 nM RIP1 kinase domain, 2 hours incubation, read-out: Ki.
Where [2] appears, read: scale-up batches (Examples A-C), apparent Ki (Morrison tight-binding fit), 50 nM RIP1 kinase domain, read-out: Ki.

human RIP1 kinase domain (2-375), sequence (Q13546 2-375): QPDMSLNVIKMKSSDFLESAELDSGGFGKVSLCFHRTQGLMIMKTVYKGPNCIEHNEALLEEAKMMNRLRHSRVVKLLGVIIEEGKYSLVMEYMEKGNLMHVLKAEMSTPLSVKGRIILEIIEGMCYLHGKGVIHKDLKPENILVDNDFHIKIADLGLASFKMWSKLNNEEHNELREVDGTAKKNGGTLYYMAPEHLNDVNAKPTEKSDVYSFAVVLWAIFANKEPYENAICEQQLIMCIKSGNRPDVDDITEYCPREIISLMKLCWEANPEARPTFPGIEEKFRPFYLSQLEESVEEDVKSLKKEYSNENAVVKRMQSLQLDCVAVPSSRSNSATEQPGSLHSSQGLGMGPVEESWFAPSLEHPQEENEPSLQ

For the molecule `CN1C(=O)[C@@H](NC(=O)c2ncn(Cc3ccccc3)n2)CCn2nc(CCO)cc21` [Example 766, 1-benzyl-N-[(6S)-2-(2-hydroxyethyl)-4-methyl-5-oxo-7,8-dihydro-6H-pyrazolo[1,5-a][1,3]diazepin-6-yl]-1,2,4-triazole-3-carboxamide], the Ki under setting [1] was determined as 84 nM.

Regarding `COCCc1cc2n(n1)CC[C@H](NC(=O)c1ncn(Cc3ccccc3)n1)C(=O)N2C` [Example 767, 1-benzyl-N-[(6S)-2-(2-methoxyethyl)-4-methyl-5-oxo-7,8-dihydro-6H-pyrazolo [1,5-a][1,3]diazepin-6-yl]-1,2,4-triazole-3-carboxamide], the Ki under setting [1] is 64 nM.

As to `COCCc1cc2n(n1)CC[C@H](NC(=O)c1ncn(Cc3ccccc3F)n1)C(=O)N2C` [Example 768], under setting [1], the Ki came out at 51 nM.

For the molecule `CN1C(=O)[C@@H](NC(=O)c2ncn(Cc3ccccc3)n2)CCn2nc(CCN3CC(F)C3)cc21` [Example 769], under setting [1], the Ki worked out at 233 nM.

In the case of `CN1C(=O)[C@@H](NC(=O)c2ncn(Cc3ccccc3F)n2)CCn2nc(CCN3CC(F)C3)cc21` [Example 770, 1-[(2-fluorophenyl)methyl]-N-[(6S)-2-[2-(3-fluoroazetidin-1-yl)ethyl]-4-methyl-5-oxo-7,8-dihydro-6H-pyrazolo[1,5-a][1,3]diazepin-6-yl]-1,2,4-triazole-3-carboxamide], the Ki under setting [1] worked out at 337 nM.

`COC1CN(CCc2cc3n(n2)CC[C@H](NC(=O)c2ncn(Cc4ccccc4F)n2)C(=O)N3C)C1` [Example 771, 1-[(2-fluorophenyl)methyl]-N-[(6S)-2-[-(3-methoxyazetidin-1-yl)ethyl]-4-methyl-5-oxo-7,8-dihydro-6H-pyrazolo[1,5-a][1,3]diazepin-6-yl]-1,2,4-triazole-3-carboxamide]: under setting [1], the Ki worked out at 172 nM.

For the molecule `CN1C(=O)[C@@H](NC(=O)c2ncn(Cc3ccccc3)n2)CCn2nc(CCN3CC(F)(F)C3)cc21` [Example 772], the Ki under setting [1] worked out at 115 nM.

As for `CN1C(=O)[C@@H](NC(=O)c2ncn(Cc3ccccc3F)n2)CCn2nc(CCN3CC(F)(F)C3)cc21` [Example 773, 1-[(2-fluorophenyl)methyl]-N-[(6S)-2-[2-(3,3-difluoroazetidin-1-yl)ethyl]-4-methyl-5-oxo-7,8-dihydro-6H-pyrazolo[1,5-a][1,3]diazepin-6-yl]-1,2,4-triazole-3-carboxamide], under setting [1], the Ki turned out to be 189 nM.

Take `CN1C(=O)[C@@H](NC(=O)c2ncn(Cc3ccccc3)n2)CCn2nc(CC3CCOCC3)cc21` [Example 774, 1-benzyl-N-[(6S)-4methyl-5-oxo-2-(tetrahydropyran-4-ylmethyl)-7,8-dihydro-6H-pyrazolo[1,5-a][1,3]diazepin-6-yl]-1,2,4-triazole-3-carboxamide]: the Ki under setting [1] is 37 nM.

For the molecule `CN1C(=O)[C@@H](NC(=O)c2ncn(Cc3ccccc3)n2)CCn2nc(CN3CCOCC3)cc21` [Example 779, (S)-1-benzyl-N-(4-methyl-2-(morpholinomethyl)-5-oxo-5,6,7,8-tetrahydro-4H-pyrazolo[1,5-a][1,3]diazepin-6-yl)-1H-1,2,4-triazole-3-carboxamide], under setting [1], the Ki was 155 nM.

`COC1CN(Cc2cc3n(n2)CC[C@H](NC(=O)c2ncn(Cc4ccccc4)n2)C(=O)N3C)C1` [Example 781, (S)-1-benzyl-N-(2-((3-methoxyazetidin-1-yl)methyl)-4-methyl-5-oxo-5,6,7,8-tetrahydro-4H-pyrazolo[1,5-a][1,3]diazepin-6-yl)-1H-1,2,4-triazole-3-carboxamide]: the Ki under setting [1] worked out at 172 nM.

For the molecule `CN1C(=O)[C@@H](NC(=O)c2ncn(Cc3ccccc3)n2)CCn2nc(CN3CC(F)C3)cc21` [Example 782, (S)-1-benzyl-N-(2-((3-fluoroazetidin-1-yl)methyl)-4-methyl-5-oxo-5,6,7,8-tetrahydro-4H-pyrazolo[1,5-a][1,3]diazepin-6-yl)-1H-1,2,4-triazole-3-carboxamide], the Ki under setting [1] was 142 nM.

With `CN1C(=O)[C@@H](NC(=O)c2nc3n(n2)CCN(C)C3c2ccccc2)COc2ccccc21` (stereo partly drawn) [Example 786, 7-methyl-N-[(3S)-5-methyl-4-oxo-2,3-dihydro-1,5-benzoxazepin-3-yl]-8-phenyl-6,8-dihydro-5H-[1,2,4]trizolo [1,5-a]pyrazine-2-carboxamide], under setting [1], the Ki was 112 nM.

`CN1C(=O)[C@@H](NC(=O)c2nc3n(n2)CCNC3C(F)(F)F)COc2ccccc21` (stereo partly drawn) [Example 787, N-[(3S)-5-methyl-4-oxo-2,3-dihydro-1,5-benzoxazepin-3-yl]-8-(trifluoromethyl)-5,6,7,8-tetrahydro-[1,2,4]triazolo [1,5-a]pyrazine-2-carboxamide]: the Ki under setting [1] came to 309 nM.

For `CN1C(=O)[C@@H](NC(=O)c2ncn(Cc3ccccc3)n2)CCn2nc(C3CC3)cc21` [Example A, (S)-1-benzyl-N-(2-cyclopropyl-4-methyl-5-oxo-5,6,7,8-tetrahydro-4H-pyrazolo[1,5-a][1,3]diazepin-6-yl)-1H-1,2,4-triazole-3-carboxamide], the Ki under setting [2] was found to be 16 nM.

Turning to `CN1C(=O)[C@@H](NC(=O)c2ncn(Cc3ccccc3)n2)CCn2nccc21` [Example B], under setting [2], the Ki came to 13 nM.

Regarding `Cc1cc2n(n1)CC[C@H](NC(=O)c1ncn(Cc3ccccc3)n1)C(=O)N2C` [Example C, (S)-1-benzyl-N-(2,4-dimethyl-5-oxo-5,6,7,8-tetrahydro-4H-pyrazolo[1,5-a][1,3]diazepin-6-yl)-1H-1,2,4-triazole-3-carboxamide], the Ki under setting [2] was determined as 22 nM.

For the molecule “(S)—N-(5-methyl-4-oxo-2,3,4,5-tetrahydrobenzo[b][1,4]oxazepin-3-yl)-6-(trifluoromethyl)-[1,2,4]triazolo[4,3-a]pyridine-3-carboxamide [Example 113]”, where the note is “human RIP1 kinase domain (2-375), 2 hours incubation, Transcreener ADP assay, read-out: RIP1 Ki”, the Ki came out at 1700 nM.
